Results from patent publication US20230151437A1, “USE OF PROTEIN ASSEMBLIES TO RECORD CELLULAR EVENTS” (President and Fellows of Harvard College, priority 2021, published 2023).

Assays:
[1] = tested on: Tet-ON transcription system; assay: Ticker tape recording of DOX activation of the Tet-ON system in HEK cells; assay type: cell-based
Method: FIGS. 16A-16B show recordings of impulse response of protein expression following pulsed doxycycline (DOX) activation in HEK293T cells. […] Transitions to JF669 at t=0 and to JFX608 at t=8 h provided fiducial timestamps. Transcription was activated via addition of 2 μg/mL DOX at t=−0.5 h, followed by a thorough wash at t=0 h. FIG. 16B provides three representative examples showing the GFP intensity profiles on the protein ticker tapes. Top: representative images. Bottom: fluorescence line profiles. Scale bars: […].
As the first test of a physiological recording, iPAK4 assemblies were used to report on a transcriptional activator, the tetracycline mediated Tet-ON transcription system.^28 HEK cells were co-infected with lentivirus containing CMV::iPAK4 (60%), CMV::rTTA3 (30%), CMV::HT-iPAK4 (5%), and CMV::eGFP-iPAK4 (5%) to establish tetracycline-dependent eGFP-iPAK4 expression (FIG. 4A). After assemblies had nucleated (24 h after lentiviral infection), JF552 was added to label the initial nuclei, and JF669 was added at t=0. In different dishes, doxycycline (DOX, 2 μg/mL) was added at t=2, 4, or 6 h to activate expression of eGFP-iPAK4. Then JF552 was added again at t=8 h, and the assemblies were grown for another 8-14 h before fixation and imaging (FIG. 4B).

[2] = tested on: cFos promoter; assay: Ticker tape recording of PMA activation of cFos in neurons; assay type: cell-based, rat
From the text: In neurons co-expressing CMV::iPAK4 (90%) and cFos::eGFP-iPAK4 (10%), assemblies initially grew with little green fluorescence. […] Sequential additions of PMA to a single dish led to distinct bands of eGFP fluorescence, clearly resolved by sharp eGFP boundaries (FIG. 5G).
To measure timing of cFos activation relative to fiducial timestamps, CMV::iPAK4 (80%), CMV::HT-iPAK4 (10%), and cFos::eGFP-iPAK4 (10%; FIG. 5E) were co-expressed. The neurons were stained with JF552, and then switched to JF669 at t=0. PMA (1 μM) was then added at t=3, 6, or 9 h, and a second fiducial timestamp was introduced by switching back to JF552 at t=12 h. Assemblies were grown until t=22 h and then fixed and imaged (FIG. 5F).
Chemical activation of neuronal activity: The cFos promoter was activated by phorbol 12-myristate 13-acetate (PMA; Sigma Aldrich P8139). Briefly, the PMA was first diluted with DMSO to form a 1 mM stock solution. At the designated time, 2 μl PMA stock was directly added to each 14 mm glass-bottom culture dish, which contained 2 ml BPNM/SM1 medium. The dishes were then stirred gently to mix the PMA and medium. After PMA addition, the dishes were returned to an incubator at 37° C. with 5% CO2.

[3] = target: T1, intracellular HT receptors (HT-NLS) (Rhodococcus rhodochrous, UniProt P0A3G2, A155T/A167V/A172T/A224E/C128F/C176G/D78G/E160K/E257K/H272N/K175M/K195N/L47V/L88M/N227D/P291S/S2A/S58T/T264A/Y273L/Y87F); assay: Kinetics of HT dye labeling in HEK293T cells expressing HT-NLS; assay type: cell-based; settings: for effective time constant of HT dye labeling: 1 μM dye, HEK293T cells; for first-order reaction rate constant of HT dye labeling: HEK293T cells expressing HT-NLS, 0.1 μM dye, combined membrane permeation and HT reaction
T1 construct: host or cells: HEK293T
Method: FIGS. 13A-13C show kinetics of HT dye labeling and turnover in HEK293T cells. […] The sharpness of the dye transition was 7.5 min, as calculated by the width of the peak in the second derivative of fluorescence vs. position (purple). FIGS. 13B-13C show kinetics of HT dye reaction in HEK293T cells. HEK293T cells expressing a nucleus-targeted HT construct (HT-NLS, Addgene #82518) were incubated with 0.1 μM of the indicated dye (FIG. 3B) or 1 μM of the indicated dye (FIG. 3C), and nuclear fluorescence was monitored as a function of time. In FIG. 3B, HT-iPAK4 labeling experiments were performed with 10-fold higher dye concentrations (1 μM).
Dye additions appeared as upward-going kinks in the fluorescence profiles (FIGS. 12D, 13A), which were located as peaks in the second derivative of fluorescence vs. position. By dividing the transition zone widths (full-width at half-maximum of the peak in the second derivative) by the assembly-specific growth rates, a mean transition zone duration of 7.5 min was calculated (FIG. 13A). To determine whether the kinetics of HT dye labeling affected the widths of these transitions, the labeling of intracellular HT receptors was measured with several different HT dyes. These measurements probed the combined effects of membrane permeation and the HT reaction. The first-order reaction rate constants were 2.9 μM^−1 min^−1 (JF525), 0.13 μM^−1 min^−1 (JFX608), and 0.27 μM^−1 min^−1 (JF669) (FIG. 13B). […] The effective time constants at 1 μM dye were: 43 min (JF503), 3.5 min (JF525), 2.0 min (JF552), 12 min (JFX608), and 17 min (JF669) (FIGS. 13A and 13C). The precision of localizing a dye transition in an assembly is not equal to the labeling time constant, but rather the precision with which one can identify the onset of the labeling reaction. For all the JF dyes, this time was much less than 10 min.
Measurements of HT dye labeling kinetics in HEK293T cells: HEK293T cells were transfected with an inducible nuclear-localized HT protein (HT-NLS, Addgene #82518). Doxycycline (DOX, 2 μg/ml) was added 12 h after transfection to induce the expression of HT-NLS. 24 h after transfection, cells were incubated with 0.1 μM of the indicated dye, and nuclear fluorescence was monitored via wide-field epifluorescence microscopy as a function of time.

T1 sequence (P0A3G2 other isoform, or with tags, fused parts or gaps with the stated changes): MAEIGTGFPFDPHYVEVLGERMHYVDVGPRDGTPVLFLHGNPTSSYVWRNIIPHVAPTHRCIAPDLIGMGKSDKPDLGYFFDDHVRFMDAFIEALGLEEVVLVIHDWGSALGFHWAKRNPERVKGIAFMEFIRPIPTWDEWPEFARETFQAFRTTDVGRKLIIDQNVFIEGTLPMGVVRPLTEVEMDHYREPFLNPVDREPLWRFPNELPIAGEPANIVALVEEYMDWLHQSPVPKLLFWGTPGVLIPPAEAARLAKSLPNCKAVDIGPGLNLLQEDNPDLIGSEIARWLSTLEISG

C[C@H]1c2cccc(O)c2C(=O)C2=C(O)[C@]3(O)C(=O)C(C(N)=O)=C(O)[C@@H](N(C)C)[C@@H]3[C@@H](O)[C@@H]21 [DOX, doxycycline]
duration of rise of eGFP-iPAK4 expression ([1]; 30-minute pulse of DOX): approximately 8 h | window of protein expression ([1]; 30-minute pulse of DOX): ~14 h | offset between DOX addition and start of the green stripe (y-intercept of linear fit) ([1]; DOX 2 μg/mL at t=2, 4 or 6 h, HEK cells, N=191 assemblies): 1.2 h

CCCCCCCCCCCCCC(=O)O[C@@H]1[C@@H](C)[C@@]2(O)[C@@H](C=C(CO)C[C@]3(O)C(=O)C(C)=C[C@@H]23)[C@@H]2C(C)(C)[C@]12OC(C)=O [PMA, phorbol 12-myristate 13-acetate]
delay of eGFP onset relative to PMA addition ([2]; PMA 1 μM at t=3, 6 or 9 h, neurons, extrapolated fit): 53 min | effect on cFos::eGFP-iPAK4 expression ([2]; PMA 1 μM, neurons co-expressing CMV::iPAK4 and cFos::eGFP-iPAK4): bands of bright green fluorescence | y-intercept of linear fit of eGFP onset ([2]; PMA at t=3, 6 or 9 h, neurons): ca. 1.0 h

JF525 [reference compound]
effective time constant of HT dye labeling [3]: 3.5 min | first-order reaction rate constant of HT dye labeling [3]: 2.9 µM⁻¹ min⁻¹

JFX608-HaloTag ligand
effective time constant of HT dye labeling [3]: 12 min | first-order reaction rate constant of HT dye labeling [3]: 0.13 µM⁻¹ min⁻¹
